This is an account of results in a melting point compilation (Tetko et al.).

As a reminder, the melting point is the temperature, or range, at which the solid turns liquid.

In the case of `CN(c1ccc(C(=O)CCl)cc1)S(C)(=O)=O`, the melting point was 75 to 77 °C.
The compound `CC(C)(C)OC(=O)NCC(=O)NN` gave a melting point of 79 to 81 °C.
Under `Clc1ccc2nccnc2n1` stands 148 to 150 °C; under `CC1(C)SC(=O)NC1=O`, 77 to 79 °C.
In the case of `Cc1nn(-c2ccccc2)c(C(F)(F)Cl)c1C(=O)O`, the melting point lay in the range of 144 to 146 °C.
For `N#Cc1ccc(N2CCCC(N)C2=O)cc1` (stereo not drawn), the melting point is 101 to 103 °C.
Then `CN(C)c1ccnc(N)c1`, with 113 to 115 °C; and `c1ccc(NC2=NCCCS2)cc1`, with 124 to 126 °C; and `Cn1cc(-c2ccc(F)c(C(=O)O)c2)cn1`, with 208 to 210 °C.
Under `COCCCn1c(S)nc2ccccc2c1=O` stands 180 to 182 °C.
Under `CC(C)Oc1ccc(C(O)CN)cc1` (stereo not drawn) stands 62 to 64 °C.
`COc1ccc(CN2CCN(C(=O)CCNC(=O)c3ccc(C(C)(C)C)cc3)CC2)cc1` displayed a melting point of 102 to 104 °C.
For the compound `CC(C)(C)c1cnc(S)s1`, the melting point fell in the range of 115 to 117 °C.
Then `O=C(Nc1sc2ccccc2c1Cl)OCC(F)(F)F`, with 95 to 97 °C; and `CCOC(=O)CN(C)c1ccncc1[N+](=O)[O-]`, with 82 to 84 °C.
`CC(C)CC1NC(=O)NC1=O` (stereo not drawn) came in with a melting point of 215 to 217 °C.
Turning to `NC1=NNC(=O)C1c1ccccc1` (stereo not drawn), the melting point lay in the range of 249 to 251 °C.
`O=c1ccccn1Cc1ccc(Cl)c([N+](=O)[O-])c1`: the melting point is 92 to 94 °C.
`CCC(Nc1nc(C)cs1)C(=O)O` (stereo not drawn): the melting point was 173 to 175 °C.
As for `CN1CCN(C(=O)C2CCCNC2)CC1` (stereo not drawn), the melting point is 85 to 87 °C.
Take `NNC(=S)NCC(N)=O`: the melting point fell in the range of 153 to 155 °C.
`COc1cc(Cl)ccc1C(=O)NN`: the melting point lay within 178 to 180 °C.
For the compound `Cn1cc(Nc2ccc(=O)n(C)c2)ccc1=O`, the melting point fell in the range of 270 to 272 °C.
The compound `CN(C)c1cc(C#N)ccn1` yielded a melting point of 69 to 71 °C.
Then `O=C(NC1CCCC1)c1cnc(Cl)c(Cl)c1`, with 159 to 161 °C; and `O=c1ccc2cc(S(=O)(=O)Cl)ccc2o1`, with 117 to 119 °C.
Then `O=C(CCl)Nc1cc(-n2cnnn2)ccc1F`, with 185 to 187 °C.
The compound `O=C(O)c1ccc(NS(=O)(=O)c2ccc(Br)s2)cc1` displayed a melting point of 254 to 256 °C.
Under `N#CC1=C(N)Oc2ccccc2C1` stands 143 to 145 °C.
Under `Cc1cnoc1C(=O)O` stands 133 to 135 °C; under `O=C(O)COc1ccc2oc3ccccc3c2c1`, 132 to 134 °C.
Turning to `CC(=O)N1CCN(C(=O)CCl)CC1`, the melting point was 89 to 91 °C.
Then `OC(CC1COCCN1)c1ccccc1` (stereo not drawn), with 74 to 76 °C.
With `CC(C)c1nnc(S)n1C1CC1`, the melting point lay in the range of 146 to 148 °C.
`CC1(C)CC(C=Cc2ccccn2)=Cc2c1sc(N)c2C#N` returned a melting point of 200 to 202 °C.
Take `CC1CC(C(F)(F)F)c2c(n(C)[nH]c2=O)N1` (stereo not drawn): the melting point fell in the range of 202 to 204 °C.
`COc1ccc(S(=O)(=O)CC(C)C(=O)O)cc1` (stereo not drawn) registered a melting point of 116 to 118 °C.
Then `COC(=O)c1cc(OC)ccc1S(=O)(=O)Cl`, with 49 to 51 °C.
In turn, `CS(=O)(=O)c1ccc(OCCCCC(=O)O)cc1` yielded a melting point of 125 to 127 °C.
`CCC(NC(=O)c1ccccc1)C(N)=S` (stereo not drawn) gave a melting point of 244 to 246 °C.
For the compound `O=S(=O)(NCc1ccccc1)c1cccs1`, the melting point is 145 to 150 °C.
`NC1CCN(c2ccc(C(F)(F)F)cc2)C1=O` (stereo not drawn) gave a melting point of 132 to 134 °C.
For the compound `O=C(O)C1CC2CCCC(C1)C2=O` (stereo not drawn), the melting point is 129 to 131 °C.
Under `O=C(O)c1cc2cc(Br)ccc2[nH]1` stands 283 to 285 °C.
`O=c1[nH]cnc2c(-c3ccccc3)nsc12` registered a melting point of 256 to 258 °C.
Consider `O=c1[nH]c(CCl)nc2c(Br)cc(Br)cc12`, for which the melting point was in the range of 248 to 252 °C.
The compound `O=C1CCCc2c1[nH]c1ccccc21` yielded a melting point of 169 to 171 °C.
As for `CCc1nc(N)sc1C(=O)O`, the melting point was 154 to 156 °C.
On to `Nc1ccc(N2CCN(C(=O)C3CC3)CC2)cn1`, for which the melting point lay within 153 to 155 °C.
Then `Cc1nn(-c2ccccc2)c(Oc2ccc(F)cc2)c1C=O`, with 105 to 107 °C; and `N#Cc1ccc2c(n1)CCCC2`, with 69 to 71 °C.
Under `O=c1[nH]c(-c2ccc(F)cc2)cs1` stands 179 to 181 °C; under `N#Cc1ccc(OCc2cccc(C(=O)O)c2)cc1`, 221 to 223 °C.
Take `COc1cc(OC)c(NC(=O)OCC(F)(F)F)cc1Cl`: the melting point lay in the range of 87 to 89 °C.
Then `NNC(=O)c1ccc(F)cc1Br`, with 151 to 153 °C.
For the compound `Cn1c(C(N)c2ccccc2)nc2ccccc21` (stereo not drawn), the melting point was in the range of 110 to 112 °C.
Turning to `CC(NC(=O)OCC(F)(F)F)c1nncn1C` (stereo not drawn), the melting point was in the range of 103 to 105 °C.
For `Nc1c(Cl)cc(Br)cc1C(=O)O`, the melting point lay within 233 to 235 °C.
`CC(=O)c1ccc(NC(=O)NC2CC2)cc1`: the melting point lay in the range of 161 to 163 °C.
As for `O=c1cc2c(n[nH]1)CCCC2`, the melting point lay in the range of 192 to 194 °C.
Turning to `NC(CN1CCCC1)=NO`, the melting point lay within 142 to 144 °C.
In turn, `COCc1cccc(CNC(=O)CCl)c1` displayed a melting point of 41 to 43 °C.
As to `O=C(O)c1ccc(-c2cccs2)cc1F`, the melting point fell in the range of 228 to 230 °C.
Under `CC(C)Oc1ccc(NS(=O)(=O)CC(=O)O)cc1` stands 116 to 118 °C; under `CC(C)C(NC1=NS(=O)(=O)c2ccccc21)C(=O)O` (stereo not drawn), 234 to 236 °C.
Turning to `CC(C)c1ccc(-n2ccnc2SCC(=O)O)cc1`, the melting point was in the range of 80 to 82 °C.
Compound `O=C(O)CC1CCS(=O)(=O)C1` (stereo not drawn) showed a melting point of 87 to 89 °C.
In the case of `OC(CNCc1ccccc1)c1ccsc1` (stereo not drawn), the melting point was 78 to 80 °C.
`CCC1(C(=O)O)CCN(C(=O)OC(C)(C)C)C1` (stereo not drawn) displayed a melting point of 94 to 96 °C.
`CC(C)CN1CCOC(CNC(=O)CCl)C1` (stereo not drawn) yielded a melting point of 83 to 85 °C.
As to `COC(=O)c1c(N)sc2c1CCCCC2`, the melting point is 94 to 98 °C.
As for `OCc1ccc(F)c2cccnc12`, the melting point was 131 to 133 °C.
For `Cc1c[nH]c(=O)n1-c1cccc([N+](=O)[O-])c1`, the melting point lay in the range of 201 to 203 °C.
For the compound `Cc1c(Cl)ccc2ccc(=O)[nH]c12`, the melting point lay within 269 to 271 °C.
`C1CCC(c2nnc3n2CCCC3)NC1` (stereo not drawn) came in with a melting point of 107 to 109 °C.
In the case of `Nc1cc(C2CCC2)nn1-c1ccccc1`, the melting point was 87 to 89 °C.
Under `Cc1ccc(S(=O)(=O)OCC2CCCO2)cc1` (stereo not drawn) stands 43 to 45 °C; under `Brc1ccc(OCC2CO2)cc1` (stereo not drawn), 49 to 51 °C.
`COC(=O)c1cc(C(C)(C)C)n[nH]1` displayed a melting point of 172 to 174 °C.
Then `O=C(CCl)NCc1ccco1`, with 81 to 83 °C; and `O=C(CN1CCNCC1)Nc1ccccc1Cl`, with 99 to 101 °C; and `COc1ccc(CCNc2nnc(S)s2)cc1OC`, with 189 to 191 °C.
The compound `Nc1cccc(NC(=O)c2cccc(C(F)(F)F)c2)c1` returned a melting point of 134 to 136 °C.
On to `O=C(Nc1ccc(F)cc1)Nc1cccc(O)c1`, for which the melting point lay in the range of 214 to 216 °C.
As to `CC(C)NC(=O)Nc1ccc(O)c(C(=O)O)c1`, the melting point lay within 192 to 194 °C.
The compound `CNc1ncccc1N` showed a melting point of 108 to 110 °C.
Then `CC(=O)CC(=O)c1ccncc1`, with 63 to 65 °C; and `O=[N+]([O-])c1cc(Cl)ccc1NC1CC1`, with 70 to 72 °C.
In the case of `Cc1cc(C(=O)CCl)c(C)n1CCC(C)C`, the melting point was in the range of 55 to 57 °C.
In turn, `Cn1ccnc1C(=O)c1ccc(N)cc1` yielded a melting point of 70 to 72 °C.
Take `NS(=O)(=O)c1c(Cl)cccc1C(F)(F)F`: the melting point was in the range of 155 to 157 °C.
Then `O=C(O)CNC(=O)c1ccc(F)cc1`, with 169 to 171 °C; and `CNCc1nnn[nH]1`, with 224 to 226 °C; and `NC(=O)CCC1CCCCC1`, with 116 to 118 °C.
In the case of `Cn1ncc(Br)c(Br)c1=O`, the melting point lay in the range of 114 to 116 °C.
On to `COC(=O)C1(N)CCS(=O)(=O)CC1`, for which the melting point is 124 to 126 °C.
With `OC1CC(c2ccc(Br)cc2)C1` (stereo not drawn), the melting point lay within 59 to 61 °C.
The compound `CC1CCCCN1c1cc(C(=O)O)ccn1` (stereo not drawn) displayed a melting point of 164 to 166 °C.
Compound `O=C(O)C1CCN1Cc1ccccc1` (stereo not drawn) displayed a melting point of 176 to 178 °C.
Compound `CCSCc1ccc(C(=O)O)cc1` displayed a melting point of 123 to 125 °C.
Compound `O=C(O)c1ccc(=O)n(-c2ccccc2F)n1` showed a melting point of 199 to 201 °C.
For `O=C(O)C=Cc1cn(-c2ccccc2)nc1-c1cccc([N+](=O)[O-])c1`, the melting point was in the range of 248 to 250 °C.
`CS(=O)(=O)C(Br)C(=O)c1ccccc1` (stereo not drawn) showed a melting point of 90 to 92 °C.
Compound `Cc1cc(SC#N)cc(C)c1N` displayed a melting point of 82 to 84 °C.
`CCC(=O)NN`: the melting point was 24 to 26 °C.
Turning to `O=C(O)c1cccc(OCc2cccc(Cl)c2)c1`, the melting point is 144 to 146 °C.
Take `Cc1oc(C(N)=O)cc1C(=O)CCl`: the melting point lay in the range of 197 to 199 °C.
As for `O=C(O)COc1cc(F)ccc1F`, the melting point was 151 to 153 °C.
With `CC(NC(=O)CC(F)(F)F)C(=O)O` (stereo not drawn), the melting point is 105 to 107 °C.
Then `O=C(O)CCc1nnc(-c2ccccn2)o1`, with 191 to 193 °C.
`Cc1ccc2nc(NCc3ccccc3)sc2c1`: the melting point is 175 to 177 °C.
`CCCOc1ccc(C=O)cc1OCC` returned a melting point of 36 to 38 °C.
In turn, `COC(=O)c1ccccc1-n1ncc(Cl)c(Cl)c1=O` had a melting point of 125 to 127 °C.
`Cc1cccc(-n2ncc(C(=O)O)n2)c1` registered a melting point of 131 to 133 °C.
Then `CC(=O)N(c1ccc(C(F)(F)F)cc1)c1nc(C=O)cs1`, with 138 to 140 °C; and `Nc1cc(-c2cccc(Cl)c2Cl)[nH]n1`, with 110 to 112 °C.
In turn, `CC(O)c1ccc2c(c1)Nc1ccccc1S2` (stereo not drawn) showed a melting point of 149 to 151 °C.
For `CS(=O)(=O)c1ccc(C#N)cc1N`, the melting point was 150 to 152 °C.
On to `O=C1Nc2ccc(S(=O)(=O)Cl)cc2C1=O`, for which the melting point was 184 to 186 °C.
Regarding `Brc1cnc2nc[nH]c2c1`, the melting point was in the range of 217 to 219 °C.
With `Cc1cc(Br)cc(C)c1S(=O)(=O)Cl`, the melting point lay in the range of 49 to 51 °C.
Turning to `COC(=O)CS(N)(=O)=O`, the melting point was in the range of 57 to 59 °C.
The compound `O=C(O)CNc1nccs1` gave a melting point of 261 to 263 °C.
